Test results as given in ChEMBL document CHEMBL5291721, “A preclinical secondary pharmacology resource illuminates target-adverse drug reaction associations of marketed drugs” (Nat Commun, 2023).
Where a SMILES comes first, the peptide text is derived from it. [ ]: non-standard residue; d: D form. pGlu = O=C1CC[C@@H](C(=O)O)N1; Thz = O=C(O)[C@@H]1CSCN1

Columns and labels:
Mu-type opioid receptor = Mu-type opioid receptor (Homo sapiens, UniProt P35372)
[1] = target: 5-hydroxytryptamine receptor 2B (Homo sapiens, UniProt P41595); assay type: functional, cell-based
Chain of 5-hydroxytryptamine receptor 2B (P41595 whole entry): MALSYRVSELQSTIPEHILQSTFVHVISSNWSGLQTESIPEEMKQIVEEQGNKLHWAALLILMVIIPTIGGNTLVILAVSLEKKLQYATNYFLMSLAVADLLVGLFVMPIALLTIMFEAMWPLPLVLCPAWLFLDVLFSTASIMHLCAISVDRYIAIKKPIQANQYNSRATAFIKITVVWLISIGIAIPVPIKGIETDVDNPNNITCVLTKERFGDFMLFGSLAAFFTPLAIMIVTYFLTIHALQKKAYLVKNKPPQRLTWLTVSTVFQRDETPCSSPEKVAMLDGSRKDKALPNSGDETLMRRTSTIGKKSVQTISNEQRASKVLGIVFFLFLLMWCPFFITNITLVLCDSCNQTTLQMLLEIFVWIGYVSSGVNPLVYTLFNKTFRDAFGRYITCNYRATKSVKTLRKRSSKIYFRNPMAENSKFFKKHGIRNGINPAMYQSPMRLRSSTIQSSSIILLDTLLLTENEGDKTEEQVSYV

[2] = target: Voltage-dependent L-type calcium channel subunit alpha-1C (Rattus norvegicus, UniProt P22002); assay type: functional
Chain of Voltage-dependent L-type calcium channel subunit alpha-1C (P22002 whole entry): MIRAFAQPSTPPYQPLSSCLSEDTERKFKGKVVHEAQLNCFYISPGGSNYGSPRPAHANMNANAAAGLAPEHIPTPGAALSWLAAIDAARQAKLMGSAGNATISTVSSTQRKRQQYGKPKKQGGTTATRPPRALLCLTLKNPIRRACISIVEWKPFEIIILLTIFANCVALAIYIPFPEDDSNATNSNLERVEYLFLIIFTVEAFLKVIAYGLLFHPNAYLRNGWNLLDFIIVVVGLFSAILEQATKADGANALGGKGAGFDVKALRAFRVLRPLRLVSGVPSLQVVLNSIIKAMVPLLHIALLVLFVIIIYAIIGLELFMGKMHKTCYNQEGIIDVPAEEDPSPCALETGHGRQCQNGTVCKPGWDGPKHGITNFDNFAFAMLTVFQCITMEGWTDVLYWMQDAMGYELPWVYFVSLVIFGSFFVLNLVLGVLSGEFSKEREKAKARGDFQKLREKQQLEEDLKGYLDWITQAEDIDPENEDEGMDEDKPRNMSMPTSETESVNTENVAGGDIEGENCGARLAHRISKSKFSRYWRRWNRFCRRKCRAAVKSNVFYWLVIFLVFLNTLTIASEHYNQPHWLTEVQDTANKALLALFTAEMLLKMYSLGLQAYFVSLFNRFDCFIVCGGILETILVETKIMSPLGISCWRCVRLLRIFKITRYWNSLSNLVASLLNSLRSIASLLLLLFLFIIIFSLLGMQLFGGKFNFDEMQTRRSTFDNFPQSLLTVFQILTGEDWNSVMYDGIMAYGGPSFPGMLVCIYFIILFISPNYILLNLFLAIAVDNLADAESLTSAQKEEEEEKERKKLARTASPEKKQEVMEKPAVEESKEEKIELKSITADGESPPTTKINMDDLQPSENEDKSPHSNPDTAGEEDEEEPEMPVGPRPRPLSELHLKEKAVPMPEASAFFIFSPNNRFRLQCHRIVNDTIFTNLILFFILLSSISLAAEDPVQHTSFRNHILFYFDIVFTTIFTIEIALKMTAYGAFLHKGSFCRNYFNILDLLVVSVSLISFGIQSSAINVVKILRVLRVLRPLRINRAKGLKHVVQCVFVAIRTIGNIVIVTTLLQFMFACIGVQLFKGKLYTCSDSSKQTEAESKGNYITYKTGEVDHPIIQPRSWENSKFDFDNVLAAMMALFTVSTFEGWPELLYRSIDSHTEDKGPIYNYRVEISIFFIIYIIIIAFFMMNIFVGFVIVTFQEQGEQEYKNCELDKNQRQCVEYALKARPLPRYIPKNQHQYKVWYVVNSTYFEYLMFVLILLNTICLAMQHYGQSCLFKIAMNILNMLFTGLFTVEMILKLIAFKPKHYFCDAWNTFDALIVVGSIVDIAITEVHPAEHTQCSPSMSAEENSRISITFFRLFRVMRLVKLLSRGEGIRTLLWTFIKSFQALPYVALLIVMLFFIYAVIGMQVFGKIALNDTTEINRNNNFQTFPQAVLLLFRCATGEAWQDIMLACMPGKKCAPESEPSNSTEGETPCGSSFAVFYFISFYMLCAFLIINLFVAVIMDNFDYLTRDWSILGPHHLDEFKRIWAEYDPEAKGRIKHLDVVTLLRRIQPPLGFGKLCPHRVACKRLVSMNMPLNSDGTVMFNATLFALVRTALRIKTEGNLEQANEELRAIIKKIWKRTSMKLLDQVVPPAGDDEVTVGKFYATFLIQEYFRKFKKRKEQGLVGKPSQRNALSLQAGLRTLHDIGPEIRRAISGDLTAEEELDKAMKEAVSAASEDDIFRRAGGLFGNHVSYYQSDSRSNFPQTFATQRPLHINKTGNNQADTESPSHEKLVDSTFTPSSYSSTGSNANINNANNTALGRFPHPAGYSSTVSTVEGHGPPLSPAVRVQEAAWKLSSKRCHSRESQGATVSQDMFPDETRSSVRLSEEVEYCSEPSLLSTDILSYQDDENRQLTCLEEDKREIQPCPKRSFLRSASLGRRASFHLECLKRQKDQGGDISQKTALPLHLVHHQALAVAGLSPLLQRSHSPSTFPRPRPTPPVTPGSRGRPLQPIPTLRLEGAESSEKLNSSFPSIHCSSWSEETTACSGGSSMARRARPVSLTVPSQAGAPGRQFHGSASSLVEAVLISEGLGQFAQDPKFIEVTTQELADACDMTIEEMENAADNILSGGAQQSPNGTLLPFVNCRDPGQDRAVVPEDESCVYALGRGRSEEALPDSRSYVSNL

Progesterone receptor = target: T1, Progesterone receptor (Homo sapiens, UniProt P06401); assay type: functional
T1 sequence (P06401 whole entry): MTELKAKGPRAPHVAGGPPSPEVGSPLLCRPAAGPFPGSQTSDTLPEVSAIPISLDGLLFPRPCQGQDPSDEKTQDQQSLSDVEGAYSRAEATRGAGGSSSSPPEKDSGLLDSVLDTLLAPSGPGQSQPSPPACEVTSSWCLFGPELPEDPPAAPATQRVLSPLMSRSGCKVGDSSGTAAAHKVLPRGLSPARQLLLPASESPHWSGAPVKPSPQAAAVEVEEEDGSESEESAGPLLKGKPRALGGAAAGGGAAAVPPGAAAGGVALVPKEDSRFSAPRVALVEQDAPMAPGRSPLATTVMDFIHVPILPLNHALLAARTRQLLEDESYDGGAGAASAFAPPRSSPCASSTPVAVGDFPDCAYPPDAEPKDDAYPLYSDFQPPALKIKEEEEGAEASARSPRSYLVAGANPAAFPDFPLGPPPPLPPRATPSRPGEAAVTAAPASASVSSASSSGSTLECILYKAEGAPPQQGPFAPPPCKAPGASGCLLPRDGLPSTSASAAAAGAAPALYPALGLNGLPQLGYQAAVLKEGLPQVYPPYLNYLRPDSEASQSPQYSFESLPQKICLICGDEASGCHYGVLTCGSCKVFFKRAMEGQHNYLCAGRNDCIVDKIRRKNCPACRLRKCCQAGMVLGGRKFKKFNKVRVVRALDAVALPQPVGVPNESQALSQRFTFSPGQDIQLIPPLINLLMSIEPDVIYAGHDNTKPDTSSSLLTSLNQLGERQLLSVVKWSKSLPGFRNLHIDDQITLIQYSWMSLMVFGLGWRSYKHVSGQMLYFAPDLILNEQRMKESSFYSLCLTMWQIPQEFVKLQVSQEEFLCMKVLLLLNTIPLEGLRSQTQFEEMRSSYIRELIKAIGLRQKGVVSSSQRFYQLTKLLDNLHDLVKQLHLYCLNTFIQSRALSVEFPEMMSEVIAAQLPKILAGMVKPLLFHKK

Histamine H1 receptor = Histamine H1 receptor (Homo sapiens, UniProt P35367)
Chain of Histamine H1 receptor (P35367 whole entry): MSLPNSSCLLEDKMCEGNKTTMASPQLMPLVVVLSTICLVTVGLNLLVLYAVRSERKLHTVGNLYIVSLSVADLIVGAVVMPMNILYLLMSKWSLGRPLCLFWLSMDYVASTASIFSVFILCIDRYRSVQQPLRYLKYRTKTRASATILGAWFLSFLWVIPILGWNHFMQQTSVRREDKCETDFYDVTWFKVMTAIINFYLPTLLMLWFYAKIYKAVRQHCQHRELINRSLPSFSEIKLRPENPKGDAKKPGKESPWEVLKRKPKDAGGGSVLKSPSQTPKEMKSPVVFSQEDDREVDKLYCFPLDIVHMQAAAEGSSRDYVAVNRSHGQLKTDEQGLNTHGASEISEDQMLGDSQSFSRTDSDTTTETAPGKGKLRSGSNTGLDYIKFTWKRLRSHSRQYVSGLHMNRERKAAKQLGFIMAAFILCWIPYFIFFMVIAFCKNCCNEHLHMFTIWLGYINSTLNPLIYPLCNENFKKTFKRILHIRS

B2 bradykinin receptor = target: T2, B2 bradykinin receptor (Homo sapiens, UniProt P30411)
T2 sequence (P30411 whole entry): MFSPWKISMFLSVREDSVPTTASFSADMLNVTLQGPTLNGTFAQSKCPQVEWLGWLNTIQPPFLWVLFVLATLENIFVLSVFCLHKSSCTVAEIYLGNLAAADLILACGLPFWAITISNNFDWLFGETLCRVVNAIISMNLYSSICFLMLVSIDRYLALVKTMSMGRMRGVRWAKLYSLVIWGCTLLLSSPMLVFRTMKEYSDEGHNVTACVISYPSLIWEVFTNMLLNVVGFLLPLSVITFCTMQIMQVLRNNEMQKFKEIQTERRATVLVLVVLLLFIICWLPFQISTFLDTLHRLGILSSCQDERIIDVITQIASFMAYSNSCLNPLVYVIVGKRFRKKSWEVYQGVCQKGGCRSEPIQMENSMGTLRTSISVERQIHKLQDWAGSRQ

[3] = target: T3, Alpha-2A adrenergic receptor (Homo sapiens, UniProt P08913); assay type: functional, cell-based
T3 sequence (P08913 whole entry): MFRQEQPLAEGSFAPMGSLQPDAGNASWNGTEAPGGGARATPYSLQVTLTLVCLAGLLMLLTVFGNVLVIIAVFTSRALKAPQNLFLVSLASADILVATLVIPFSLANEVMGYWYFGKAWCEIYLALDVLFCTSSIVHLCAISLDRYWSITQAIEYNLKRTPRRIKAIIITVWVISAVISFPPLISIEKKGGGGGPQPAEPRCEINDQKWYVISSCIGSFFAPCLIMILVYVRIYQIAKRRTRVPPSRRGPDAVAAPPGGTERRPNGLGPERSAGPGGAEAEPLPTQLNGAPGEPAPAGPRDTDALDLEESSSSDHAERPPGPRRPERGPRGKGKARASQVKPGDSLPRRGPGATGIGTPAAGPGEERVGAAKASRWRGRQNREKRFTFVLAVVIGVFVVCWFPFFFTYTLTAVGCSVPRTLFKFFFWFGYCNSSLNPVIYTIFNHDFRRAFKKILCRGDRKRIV

Cannabinoid receptor 1 = Cannabinoid receptor 1 (Homo sapiens, UniProt P21554); assay type: functional, cell-based
Chain of Cannabinoid receptor 1 (P21554 whole entry): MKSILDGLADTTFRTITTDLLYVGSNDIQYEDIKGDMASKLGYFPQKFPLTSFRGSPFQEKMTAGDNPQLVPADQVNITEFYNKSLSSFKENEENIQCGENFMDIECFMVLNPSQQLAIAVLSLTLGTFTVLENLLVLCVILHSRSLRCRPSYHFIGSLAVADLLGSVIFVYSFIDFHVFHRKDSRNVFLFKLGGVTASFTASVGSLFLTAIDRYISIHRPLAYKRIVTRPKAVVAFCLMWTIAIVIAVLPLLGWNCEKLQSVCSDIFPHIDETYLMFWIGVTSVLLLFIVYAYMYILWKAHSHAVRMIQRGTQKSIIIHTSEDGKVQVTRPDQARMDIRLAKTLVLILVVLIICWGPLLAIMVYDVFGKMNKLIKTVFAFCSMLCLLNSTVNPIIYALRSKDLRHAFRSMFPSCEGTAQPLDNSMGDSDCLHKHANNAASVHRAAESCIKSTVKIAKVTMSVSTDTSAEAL

Adenosine receptor A2a = Adenosine receptor A2a (Homo sapiens, UniProt P29274)
Chain of Adenosine receptor A2a (P29274 whole entry): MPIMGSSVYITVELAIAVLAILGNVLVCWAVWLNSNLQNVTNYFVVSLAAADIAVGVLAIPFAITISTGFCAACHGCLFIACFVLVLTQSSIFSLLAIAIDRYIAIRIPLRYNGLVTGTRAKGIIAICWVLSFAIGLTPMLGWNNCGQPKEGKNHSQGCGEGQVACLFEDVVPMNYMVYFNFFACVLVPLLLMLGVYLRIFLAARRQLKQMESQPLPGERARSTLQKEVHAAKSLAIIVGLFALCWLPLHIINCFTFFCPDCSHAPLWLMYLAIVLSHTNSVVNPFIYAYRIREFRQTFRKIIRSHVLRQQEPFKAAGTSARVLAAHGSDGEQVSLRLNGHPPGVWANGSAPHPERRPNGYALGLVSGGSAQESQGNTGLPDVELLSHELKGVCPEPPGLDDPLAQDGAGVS

[4] = target: Beta-2 adrenergic receptor (Homo sapiens, UniProt P07550); assay type: functional, cell-based
Chain of Beta-2 adrenergic receptor (P07550 whole entry): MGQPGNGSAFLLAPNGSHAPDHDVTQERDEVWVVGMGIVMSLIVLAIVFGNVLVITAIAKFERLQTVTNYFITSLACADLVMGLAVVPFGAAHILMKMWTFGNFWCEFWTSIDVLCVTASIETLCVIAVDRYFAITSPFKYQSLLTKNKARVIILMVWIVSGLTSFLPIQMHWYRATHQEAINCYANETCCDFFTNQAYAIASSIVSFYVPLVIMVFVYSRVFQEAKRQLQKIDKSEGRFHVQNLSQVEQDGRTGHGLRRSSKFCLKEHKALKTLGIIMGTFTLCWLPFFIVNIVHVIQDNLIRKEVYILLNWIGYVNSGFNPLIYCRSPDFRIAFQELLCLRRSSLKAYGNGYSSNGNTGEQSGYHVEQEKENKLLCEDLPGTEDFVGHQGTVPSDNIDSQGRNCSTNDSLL

Endothelin-1 receptor = target: T4, Endothelin-1 receptor (Homo sapiens, UniProt P25101)
T4 sequence (P25101 whole entry): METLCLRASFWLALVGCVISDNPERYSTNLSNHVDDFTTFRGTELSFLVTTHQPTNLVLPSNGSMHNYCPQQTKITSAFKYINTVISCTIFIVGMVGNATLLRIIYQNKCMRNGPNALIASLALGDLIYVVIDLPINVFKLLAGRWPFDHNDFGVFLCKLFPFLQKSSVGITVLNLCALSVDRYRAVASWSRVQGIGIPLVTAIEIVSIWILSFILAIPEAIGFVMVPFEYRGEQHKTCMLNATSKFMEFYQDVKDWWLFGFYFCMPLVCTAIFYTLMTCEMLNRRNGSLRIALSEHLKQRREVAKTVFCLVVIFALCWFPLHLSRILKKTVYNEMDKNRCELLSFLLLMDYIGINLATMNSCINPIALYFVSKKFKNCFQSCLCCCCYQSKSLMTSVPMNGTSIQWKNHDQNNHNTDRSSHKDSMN
Note: assay procedure not described here.

Chain of Mu-type opioid receptor (P35372 whole entry): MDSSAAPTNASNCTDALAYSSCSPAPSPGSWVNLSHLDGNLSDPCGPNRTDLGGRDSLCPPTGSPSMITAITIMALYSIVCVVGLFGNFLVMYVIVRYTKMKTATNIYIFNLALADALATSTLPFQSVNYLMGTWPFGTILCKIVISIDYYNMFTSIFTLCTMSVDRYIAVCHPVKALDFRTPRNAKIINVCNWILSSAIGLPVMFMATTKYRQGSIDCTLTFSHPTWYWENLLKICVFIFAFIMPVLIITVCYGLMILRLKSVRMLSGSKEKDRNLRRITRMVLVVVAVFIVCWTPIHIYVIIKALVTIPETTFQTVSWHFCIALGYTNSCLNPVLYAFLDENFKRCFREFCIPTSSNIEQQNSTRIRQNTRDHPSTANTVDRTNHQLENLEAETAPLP

| Compound | AC50 (Mu-type opioid receptor) | AC50 [1] | AC50 [2] | AC50 (Progesterone receptor) | AC50 (Histamine H1 receptor) | AC50 (B2 bradykinin receptor) | AC50 [3] | AC50 (Cannabinoid receptor 1) | AC50 (Adenosine receptor A2a) | AC50 [4] | AC50 (Endothelin-1 receptor) |
| --- | --- | --- | --- | --- | --- | --- | --- | --- | --- | --- | --- |
| COc1cc(C)c(/C=C/C(C)=C/C=C/C(C)=C/C(=O)O)c(C)c1C [ACITRETIN] | > 30 µM | > 10 µM | > 10 µM | > 30 µM | > 10 µM | > 10 µM | > 10 µM | > 30 µM | > 10 µM |  |  |
| Cc1cc(=O)n(-c2ccccc2)n1C [ANTIPYRINE] | > 30 µM | > 10 µM | > 10 µM |  |  | > 30 µM | > 10 µM | > 30 µM | > 30 µM | > 30 µM |  |
| O=C(O)c1ccc(NC(=O)[C@H](Cc2ccc(O)cc2)NC(=O)c2ccccc2)cc1 [BENTIROMIDE] | > 30 µM | > 10 µM | > 10 µM | > 10 µM | > 10 µM | > 10 µM | > 10 µM |  | > 10 µM |  |  |
| NS(=O)(=O)c1cc2c(cc1Cl)N=C(CSCc1ccccc1)NS2(=O)=O [BENZTHIAZIDE] | > 30 µM | > 10 µM | > 10 µM | > 30 µM | > 30 µM | > 10 µM | > 10 µM |  | > 10 µM |  |  |
| O=C(CCCN1CCC(O)(c2ccc(Br)cc2)CC1)c1ccc(F)cc1 [BROMPERIDOL] |  | > 30 µM | > 30 µM | > 30 µM |  | > 30 µM |  | > 30 µM | > 30 µM | > 30 µM | > 30 µM |
| COc1cc(N)c(Cl)cc1C(=O)NC1CCN(CCCOc2ccc(F)cc2)CC1OC (stereo not given) [CISAPRIDE] | > 30 µM |  | > 10 µM |  |  | > 30 µM |  | > 30 µM | > 30 µM | > 30 µM | > 30 µM |
| CCOC(=O)C(C)(C)Oc1ccc(Cl)cc1 [CLOFIBRATE] | > 30 µM | > 10 µM | > 10 µM |  |  | > 30 µM | > 10 µM | > 30 µM | > 30 µM | > 30 µM | > 30 µM |
| CC(C)[C@@H](C)/C=C/[C@@H](C)[C@H]1CC[C@H]2/C(=C/C=C3\C[C@@H](O)CC[C@@H]3C)CCC[C@]12C [DIHYDROTACHYSTEROL] | > 30 µM | > 10 µM | > 10 µM | > 30 µM | > 10 µM | > 10 µM | > 10 µM |  | > 10 µM |  |  |
| COc1ccc(CN2CCN(C(c3ccc(F)cc3)c3ccc(F)cc3)CC2)c(OC)c1OC [LOMERIZINE] | 9.7 µM | > 30 µM | 2.4 µM | > 30 µM | 4.5 µM | > 30 µM | > 30 µM | > 30 µM | > 30 µM |  | > 30 µM |
| CC(=O)[C@H]1CC[C@H]2[C@@H]3C[C@H](C)C4=CC(=O)CC[C@]4(C)[C@H]3[C@@H](O)C[C@]12C [MEDRYSONE] | > 30 µM | > 10 µM | > 10 µM | 0.0027 µM | > 10 µM | > 10 µM | > 10 µM | > 30 µM | > 10 µM |  |  |
| CCCC(C)(COC(N)=O)COC(N)=O [MEPROBAMATE] | > 30 µM | > 10 µM | > 10 µM | > 10 µM | > 10 µM | > 10 µM | > 10 µM |  | > 10 µM |  |  |
| O=C(c1cc(Cc2n[nH]c(=O)c3ccccc23)ccc1F)N1CCN(C(=O)C2CC2)CC1 [OLAPARIB] | > 30 µM | > 10 µM | > 10 µM | > 30 µM | > 10 µM | > 30 µM | > 10 µM |  | > 30 µM |  |  |
| C[C@]12C/C(=C/O)C(=O)C[C@@H]1CC[C@@H]1[C@@H]2CC[C@@]2(C)[C@H]1CC[C@]2(C)O [OXYMETHOLONE] |  | > 30 µM |  | 23 µM |  | > 30 µM | > 30 µM | > 30 µM | > 30 µM | > 30 µM | > 30 µM |
| OC[C@H]1O[C@@H](Oc2cc(O)cc(/C=C/c3ccc(O)cc3)c2)[C@H](O)[C@@H](O)[C@@H]1O [PICEID] |  | > 30 µM | > 30 µM | > 30 µM | > 30 µM | > 30 µM | > 30 µM | > 30 µM | > 30 µM |  | > 30 µM |
| O=C1CC[C@@H](C(=O)N2CSC[C@H]2C(=O)O)N1 [PIDOTIMOD] ([pGlu]-[Thz]-OH) |  | > 30 µM | > 30 µM | > 30 µM | > 30 µM | > 30 µM | > 30 µM | > 30 µM | > 30 µM |  | > 30 µM |
| CCC(NC(C)C)C(O)c1ccc(O)c2[nH]c(=O)ccc12 (stereo not given) [PROCATEROL] |  | > 30 µM | > 30 µM | > 30 µM | > 30 µM | > 30 µM | > 30 µM | > 30 µM | > 30 µM |  | > 30 µM |
| CC1=C(/C=C/C(C)=C/C=C/C(C)=C/CO)C(C)(C)CCC1 [RETINOL] | > 30 µM | > 10 µM | > 10 µM | > 30 µM | > 10 µM | > 10 µM | > 10 µM |  | > 10 µM |  |  |
| CCCN1CCCC[C@H]1C(=O)Nc1c(C)cccc1C [ROPIVACAINE] |  | > 30 µM | > 30 µM | > 30 µM | > 30 µM | > 30 µM | > 30 µM | > 30 µM | > 30 µM |  | > 30 µM |
| Cn1c(=O)c2c(ncn2CCOC(=O)C(C)(C)Oc2ccc(Cl)cc2)n(C)c1=O [THEOFIBRATE] |  | > 30 µM | > 30 µM | > 30 µM | > 30 µM | > 30 µM | > 30 µM | > 30 µM | > 30 µM |  | > 30 µM |
| CC(C(=O)O)c1ccc2c(c1)CC(=O)c1ccccc1S2 (stereo not given) [ZALTOPROFEN] |  | > 30 µM | > 30 µM | > 30 µM | > 30 µM | > 30 µM | > 30 µM | > 30 µM | > 30 µM |  | > 30 µM |
